PMC8703884, “Synthesis and Biological Evaluation of S-, O- and Se-Containing Dispirooxindoles” (Molecules, 2021)
Entries after “also recorded” stand apart in the source; their conditions may differ. Read-outs that look alike come from different tables or passages of the source.

Tests used:
[1] = MTT cytotoxicity test, Hek293T; format: cell-based; conditions: human, 72 h incubation
[2] = tested on: PC3 human prostate cancer cell line; assay: MTT cytotoxicity test, PC3; format: cell-based; conditions: Homo sapiens
[3] = tested on: HCT116^+/+ human colon cancer cells (p53 positive); assay: MTT cytotoxicity test, HCT116 p53+/+; conditions: for CC50: Homo sapiens, HCT-116, read-out: CC50, HCT^+/+; for selectivity S against HCT116^+/+ over HCT116^−/−: ratio of CC50 values of the cell line pair
Excerpt: (§1) The used models included human prostate cancer cell lines LNCaP and PC3, breast cancer cell line (MCF-7), human colon cancer cells (HCT116^+/+, p53 positive, p53^+/+ and HCT116^−/−, p53 negative, p53^−/−), human lung adenocarcinoma epithelial cell line (A549), SV40-transformed normal human lung fibroblast cells (VA13), as well as human embryonic kidney 293 cells (Hek293) stably expressing SV40 large T antigen (Hek293T). The cytotoxicity of the evaluated molecules was properly assessed using a MTT assay based on the modified approach reported by Ferrari and colleagues.
(§2) To further elucidate the dominant mode of action, we used HCT116^+/+ and HCT116^−/− cells by analogy with the paper published by Shangary and colleagues. This isogenic cell line is commonly applied to investigate the p53/MDM2-dependent mode of action.
(§3) MTT test. The MTT assay was carried out according to [35] with few modifications; 3000 Cells (for HEK293T, A549 and MCF7cell lines) or 4000 cells (for VA13 cell line) were seeded in each well of a 96-well plate. […] Assays were performed in triplicates. […] The MTT solution was then discarded and 140 µL of DMSO was added. The plates were swayed on a shaker (60 rpm) to solubilize the formazan. […] The analysis of cytotoxicity and the estimation of IC50 values were carried out with the built-in functions in the GraphPad Prism program (GraphPad Software, Inc., San Diego, CA) P53 activation.

[4] = tested on: LNCaP human prostate cancer cell line; assay: MTT cytotoxicity test, LNCaP; format: cell-based; conditions: for CC50: Homo sapiens, LNCaP, read-out: CC50, LNCaP; for selectivity index S for LNCaP/PC3 cells: ratio of CC50 values of the cell line pair
[5] = tested on: A549 human lung adenocarcinoma epithelial cell line; assay: MTT cytotoxicity test, A549; format: cell-based; conditions: 72 h incubation
[6] = tested on: HCT116^−/− human colon cancer cells (p53 negative); assay: MTT cytotoxicity test, HCT116 p53-/-; conditions: HCT-116, read-out: CC50, HCT^−/−
Excerpt: as §1, §2, §3

[7] = MTT cytotoxicity test, VA13; format: cell-based; conditions: human, VA13 SV40-transformed normal lung fibroblast cells, 72 h incubation
Description: (§4) MTT test. […] Assays were performed in triplicates.

[8] = tested on: MCF7 breast cancer cell line; assay: MTT cytotoxicity test, MCF7; format: cell-based; conditions: Homo sapiens, 72 h incubation
Description: as §4

| Compound | CC50 at 72 h [1] [µM] | CC50 [2] [µM] | CC50 [3] [µM] | melting point | CC50 ([4]; MTT test) [µM] | CC50 [5] [µM] | CC50 [6] [µM] | CC50 at 72 h [7] [µM] | CC50 [8] [µM] | selectivity S against HCT116^+/+ over HCT116^−/− [3] | selectivity on LNCaP cells over PC3 cells ([4]; MTT test) | selectivity index S for LNCaP/PC3 cells [4] | CC50 [4] [µM] | CC50, LNCaP ([4]; MTT test) |
| --- | --- | --- | --- | --- | --- | --- | --- | --- | --- | --- | --- | --- | --- | --- |
| CN1CC2(NC(=S)N(c3ccc(F)cc3)C2=O)C2(C1)C(=O)Nc1ccc(Cl)cc12 (centres unmarked) [Compound 4n, 5″-Chloro-1′-methyl-1-(4-fluorophenyl)-2-thioxodispiro[imidazolidine-4,3′-pyrrolidine-4′,3″-indoline]-2″,5-dione] | 53 ± 9.5 | > 100 | > 100 | 273 to 274 °C | > 100 | > 100 | > 100 |  |  |  |  |  |  |  |
| CN1CC2(NC(=S)N(c3ccc(F)c(Cl)c3)C2=O)C2(C1)C(=O)Nc1ccccc12 (centres unmarked) [Compound 4q, 1′-Methyl-1-(3-chloro-4-fluorophenyl)-2-thioxodispiro[imidazolidine-4,3′-pyrrolidine-4′,3″-indoline]-2″,5-dione] | 69.1 ± 21 | > 100 | > 100 | 252 to 254 °C | > 100 | > 100 | > 100 | 57.9 ± 18.3 | 62.2 ± 27.7 |  |  |  |  |  |
| CN1CC2(NC(=S)N(c3ccc(F)cc3)C2=O)C2(C1)C(=O)Nc1ccccc12 (centres unmarked) [Compound 4m, 1′-Methyl-1-(4-fluorophenyl)-2-thioxodispiro[imidazolidine-4,3′-pyrrolidine-4′,3″-indoline]-2″,5-dione] | > 100 | 1.93 ± 0.91 | 23.3 ± 3.3 | 273 to 274 °C | 3.4 ± 0.7 | > 100 | 42.4 ± 4.7 | 171 ± 15.8 | 106 ± 43.1 |  |  |  |  |  |
| CN1CC2(NC(=S)N(CCCN3CCOCC3)C2=O)C2(C1)C(=O)Nc1ccccc12 (centres unmarked) [Compound 4u, 1′-Methyl-1-(3-morpholinopropyl)-2-thioxodispiro[imidazolidine-4,3′-pyrrolidine-4′,3″-indoline]-2″,5-dione] | > 100 | 53.6 ± 17.3 | 20.8 ± 4.8 | 216 to 217 °C | 3.4 ± 0.6 | > 100 | > 100 | > 100 | > 100 | > 1.8 | selective | 15.7 |  |  |
| CN1CC2(NC(=S)N(C3CC3)C2=O)C2(C1)C(=O)Nc1ccc(Cl)cc12 (centres unmarked) [Compound 4t, 5″-Chloro-1′-methyl-1-cyclopropyl-2-thioxodispiro[imidazolidine-4,3′-pyrrolidine-4′,3″-indoline]-2″,5-dione] | > 100 | > 100 | > 100 | 275 to 276 °C | > 100 | > 100 | > 100 | > 100 | > 100 |  |  |  |  |  |
| Cc1ccc(N2C(=O)C3(CN(C)CC34C(=O)Nc3ccc(Cl)cc34)NC2=S)cc1 (centres unmarked) [Compound 4j, 5″-Chloro-1′-methyl-1-(p-tolyl)-2-thioxodispiro[imidazolidine-4,3′-pyrrolidine-4′,3″-indoline]-2″,5-dione] | 17.4 ± 2 | > 100 | > 100 | 159 to 160 °C | > 100 | 62 ± 8.3 | > 100 | 27.2 ± 5.3 | 13.7 ± 2.1 |  |  |  |  |  |
| C=CCN1C(=O)C2(CN(C)CC23C(=O)Nc2ccc(Cl)cc23)NC1=S (centres unmarked) [Compound 4d, 5″-Chloro-1′-methyl-1-allyl-2-thioxodispiro[imidazolidine-4,3′-pyrrolidine-4′,3″-indoline]-2″,5-dione] | 11.5 ± 3 | 50 ± 9.1 | 57.7 ± 18.4 | 141 to 142 °C | 20 ± 3.6 | 32.1 ± 6.7 | 40.1 ± 5.23 | 30.8 ± 4.5 | 68.4 ± 8.8 |  | moderate selectivity |  |  |  |
| COc1ccc(N2C(=O)[C@@]3(CN(C)C[C@@]34C(=O)Nc3ccc(Cl)cc34)NC2=S)cc1 (racemic) [Compound 4f, 5″-Cchloro-1′-methyl-1-(4-methoxyphenyl)-2-thioxodispiro[imidazolidine-4,3′-pyrrolidine-4′,3″-indoline]-2″,5-dione] | 1.1 ± 0.1 | 12.6 ± 2.3 | 1.95 ± 0.43 |  | 4.5 ± 0.32 | 2.8 ± 0.4 | 2.35 ± 0.95 | 2.3 ± 0.4 | 2.3 ± 0.5 |  | selective; also recorded: moderate selectivity | 2.8 |  |  |
| CN1CC2(NC(=[Se])N(c3ccc(F)c(Cl)c3)C2=O)C2(C1)C(=O)Nc1ccc(Cl)cc12 (centres unmarked) [Compound 6r, 5″-Chloro-1-(3-chloro-4-fluorophenyl)-1′-methyl-2-selenoxodispiro[imidazolidine-4,3′-pyrrolidine-4′,3″-indoline]-2″,5-dione] | 11.9 ± 0.9 | > 50 |  | 193 to 194 °C (dec.) |  | 26.5 ± 5.4 |  |  |  |  |  |  | 11.8 ± 1.5 | good activity |
| CCOc1ccc(N2C(=O)NC3(CN(C)CC34C(=O)Nc3ccc(Cl)cc34)C2=O)cc1 (centres unmarked) [Compound 9h, 5″-Chloro-1-(4-ethoxyphenyl)-1′-methyldispiro[imidazolidine-4,3′-pyrrolidine-4′,3″-indoline]-2,2″,5-trione] |  |  |  | 273 to 274 °C |  |  |  |  |  |  |  |  |  |  |
| CN1CC2(NC(=S)N(CCCN3CCOCC3)C2=O)C2(C1)C(=O)Nc1ccc(Cl)cc12 (centres unmarked) [Compound 4v, 5″-Chloro-1′-methyl-1-(3-morpholinopropyl)-2-thioxodispiro[imidazolidine-4,3′-pyrrolidine-4′,3″-indoline]-2″,5-dione] | 103 ± 27.7 | > 100 | > 100 | 224 to 225 °C | > 100 | > 100 | > 100 |  |  |  |  |  |  |  |
| COc1ccc(N2C(=O)C3(CN(C)CC34C(=O)Nc3ccc(Cl)cc34)NC2=[Se])cc1 (centres unmarked) [Compound 6f, 5″-Chloro-1-(4-methoxyphenyl)-1′-methyl-2-selenoxodispiro[imidazolidine-4,3′-pyrrolidine-4′,3″-indoline]-2″,5-dione] | 14 ± 1.5 |  |  | 284 to 285 °C (dec.) |  | 15.8 ± 1.5 |  | 12.5 ± 1.5 | 20.4 ± 3.6 |  |  |  |  |  |
| COc1cc([C@@H]2c3cc4c(cc3[C@@H](O[C@@H]3O[C@@H]5CO[C@@H](C)O[C@H]5[C@H](O)[C@H]3O)[C@H]3COC(=O)[C@H]23)OCO4)cc(OC)c1O [Etoposide, reference compound] | 0.3 ± 0.1 |  | 0.43 ± 0.12 |  |  | 0.3 ± 0.1 | 0.85 ± 0.22 |  | 2.6 ± 0.9 | 1.97 |  |  |  |  |
| CN1CC2(NC(=S)N(c3ccccc3)C2=O)C2(C1)C(=O)Nc1ccc(Cl)cc12 (centres unmarked) [Compound 4x, 5″-Chloro-1′-methyl-1-phenyl-2-thioxodispiro[imidazolidine-4,3′-pyrrolidine-4′,3″-indoline]-2″,5-dione] | > 100 | > 100 | > 100 | 268 to 269 °C | > 100 | > 100 | > 100 |  |  |  |  |  |  |  |
